Reference: US20100305071A1, “METHODS FOR IMPROVING HEALING OF AN ORAL LESION USING A GLYCEROPHOSPHATE SALT” (PRELIEF INC., priority 2007, published 2010)
Entries after “also recorded” stand apart in the source; their conditions may differ.

Tests used:
[1] = tested on: gum wounds after tooth extraction (oral lesion); assay: CGP powder applied to the gum wound after tooth extraction (single human subject); assay type: in vivo
Protocol: A tooth was removed from a human, subject and normal packing was applied. There were five (5) stitches put in. Approximately 2 hours after the extraction, the human subject lightly rinsed their mouth and applied powdered CGP granulate of approximately 150 micron size granules directly to the gum and allowed the powder to become wet. Sufficient CGP powder was applied to form a light plaster coating over the wound. This was repeated approximately 6 hours later, before retiring that night, and again the next morning. In all cases, the CGP remained intact and in a cohesive mass on the gum for 15 minutes or more, after which time it slowly dissolved or dispersed and was safely swallowed. At no time during the post-extraction period was there swelling or pain. […] Rapid healing of the gum wounds was observed by a periodontist at the normal stitch-removal visit, 7 days subsequent to tooth removal. The gums had fully closed and were normal pink color in about one week. The periodontist commented that in their 15 years of practice, they had never seen this quality of healing at this speed.

[2] = tested on: rhino mucosal passage inflammation; assay: Observation of low concentrations of CGP on rhino mucosal passage inflammation; assay type: in vivo; conditions: CGP between 1% and 2% by weight
[3] = tested on: wounds post implant placement (oral lesion); assay: Mucosal soft tissue healing in patients post implant placement applying dry CGP (PerioCell), small uncontrolled study; assay type: in vivo, human
Protocol: Methods according to embodiments of the present invention have been applied to multiple patients post implant placement. The age range of implant patients was 30-65 years. All patients had wound closure with 4-0 silk suture with interrupted knots unless otherwise noted. The patients were instructed to apply dry CGP that has less than 5% moisture in 150 micron granulate (PerioCell™, AkPharma Inc., Pleasantville, N.J. 08232) to the wounds three times daily, approximately 4 hours apart, for the first three days succeeding surgery. Mucosal soft tissue healing was observed and studied in these patients. Patient's compliance with the use instructions for CGP was reported by the patient at the post-operational visit (post-op) and was rated as Excellent, Good, Fair or Poor. In most, but not all cases, patients were reasonably compliant.

calcium glycerophosphate [CGP]
healing of the gum wounds observed by periodontist at stitch-removal visit ([1]; 7 days subsequent to tooth removal): Rapid healing
swelling or pain during the post-extraction period ([1]; CGP applied about 2 h and 8 h after extraction and next morning): At no time
time until gums were normal pink color (self-observation via mirror) ([1]; after the extraction): 36 to 48 h
effect on apparent rhino mucosal passage inflammation [2]: favorably affect
correlation between good and excellent compliance with use instructions for CGP and little to no tissue gapping and good wound healing ([3]; all implant patients): definite correlation
erythema at the wound margin at first post-op visit ([3]; one week post-op (2 weeks for patient 018), one patient per block): very little erythema or edema; also recorded: very little gingival erythema; also recorded: localized mild erythema; also recorded: little to no marginal erythema; also recorded: almost no erythema; also recorded: mild mesial inflammation; also recorded: Mild left side erythema and more moderate right side marginal erythema; also recorded: Mild to moderate marginal erythema
wound closure / tissue approximation at first post-op visit, noted by periodontist ([3]; one week post-op (2 weeks for patient 018), one patient per block, CGP three times daily for first three days, compliance varies by patient): excellent tissue approximation; also recorded: good tissue approximation; also recorded: beautiful wound approximation; also recorded: perfect wound margin approximation; also recorded: moderate tissue gaps in the left side; also recorded: wound margins came together very well with no gaps; also recorded: greater than 50% gapping of the margins; also recorded: great wound approximation with no gaps; also recorded: great wound approximation; also recorded: slight tissue gap at the mesial aspect; also recorded: no gaps seen; also recorded: excellent wound approximation and perfect closure; also recorded: great heal; also recorded: Wound closure was better in the mandible than in the maxilla; also recorded: Wound closure looked great with no gaps; also recorded: moderate gap at wound margin; also recorded: mild gap at the wound margin; also recorded: good wound approximation; also recorded: better healing on the left side than on the right; also recorded: slight gap at the wound margin; also recorded: rolled wound borders with slight gapping across
healing / closure at later post-op visit ([3]; three weeks to one month post-op, one patient per block): completely healed; also recorded: complete heal; also recorded: healing was complete; also recorded: things looked better; also recorded: perfectly closed wound; also recorded: implant was removed; also recorded: perfect tissue approximation; also recorded: perfect wound approximation; also recorded: excellent healing; also recorded: perfect closure; also recorded: good approximation; also recorded: all looked great; also recorded: complete closure; also recorded: good closure; also recorded: wound margin looked good; also recorded: wound margins were completely approximated; also recorded: excellent heal; also recorded: perfect heal on the left side
